Experimental data from publication PMC11162475, “Rule-based omics mining reveals antimicrobial macrocyclic peptides against drug-resistant clinical isolates” (Nature Communications, 2024).
In brackets after ≈: the same amount, converted by molar mass.

Experiments:
Bacillus subtilis 168 = assay: microbe, parasite or virus in culture; assay type: cell-based
Description: (§1) For MIC determination, Staphylococcus aureus ATCC25923, Bacillus subtilis 168, Micrococcus luteus DSM1790, Enterococcus faecalis OG1RF, Enterococcus faecium MCC2763, Escherichia coli DH5α and Pseudomonas aeruginosa PAO1 were used as indicator strains. Nisin and vancomycin were used as positive controls. A dilution series of massatide A, massatide B, vancomycin (16, 8, 4, 2, 1, 0.5, 0.25, 0.125, 0.0625, 0.0313 μg/mL) and sistertide A1, kebanetide A1, kebanetide A2, nisin (64, 32, 16, 8, 4, 2, 1, 0.5, 0.25, 0.125 μg/mL) were prepared in 96-well plate from 1–10th column. The indicator strains were added to the compound-containing well. The indicator strain culture with no antibiotics was prepared in the 11th column. The 12th column was filled with 200 μL empty MHB medium. The 96-well plate was incubated at 37 °C for 20 h (30 °C for M. luteus and B. subtilis). The OD600 was detected on MULTISKAN Sky (Thermo Scientific) and MIC values were determined. The MIC values of clinical isolates were determined by Sichuan Primed Shines Bio-tech Co., Ltd. (China) following similar protocol. Levofloxacin was used as a positive control.

[1] = tested on: Enterococcus faecalis OG1RF; assay: microbe, parasite or virus in culture; assay type: cell-based; conditions: OG1RF, 20 h
Description: as §1

[2] = tested on: Enterococcus faecium MCC2763; assay: microbe, parasite or virus in culture; assay type: cell-based; conditions: MCC2763, 20 h
Description: as §1

[3] = tested on: Micrococcus luteus DSM1790; assay: microbe, parasite or virus in culture; assay type: cell-based; conditions: DSM1790, 20 h
Description: as §1

[4] = tested on: Staphylococcus aureus ATCC25923; assay: microbe, parasite or virus in culture; assay type: cell-based; conditions: ATCC25923, 20 h
Description: as §1

[5] = tested on: Micrococcus luteus DSM1790; assay: Kirby-Bauer assay, zone of inhibition (agar well); assay type: cell-based; conditions: M. luteus DSM1790; 10 μL DMSO stock (3.2 or 1.6 mg/mL) in well of soft LB agar, 30 °C, 20 h
Description: The stock solution of massatide A (1) and B (1a) 3.2 mg/mL were prepared in DMSO. 40 μL overnight culture of Micrococcus luteus DSM1790 was added to 20 mL soft Luria-Bertani agar (1% agar), and then poured into a plate. 10 μL tip was used to make two wells on the plate. 10 μL massatide A (1) or B (1a) solution was added in one of the wells, while in the other well, 10 μL DMSO was added as a negative control. The plates were incubated at 30 °C for 20 h to observe the zone of inhibition. Staphylococcus aureus ATCC25923 was also used to observe the inhibition zone using a similar method. The only difference is incubating at 37 °C. Stock solutions of sistertide A1, kebanetide A1 and A2 were 3.2 mg/mL, 1.6 mg/mL and 1.6 mg/mL, respectively. The method to observe the activity of these compounds individually was the same as that of massatide.

Escherichia coli DH5α = assay type: cell-based; conditions: DH5α, 20 h
Description: as §1

[6] = tested on: Pseudomonas aeruginosa PAO1; assay type: cell-based; conditions: PAO1, 20 h
Description: as §1

S. aureus ATCC 25923 [7] = assay: Lysis of S. aureus culture; assay type: cell-based, Staphylococcus aureus; conditions: S. aureus ATCC 25923 culture OD600 1.0, 10×MIC, 24 h
Description: Growth kinetics of S. aureus
Massatide A or B was prepared in a 96-well plate at the concentration of 8×MIC, 4×MIC, 2×MIC, 1×MIC and 0.5×MIC , respectively. The MHB medium with no compound was used as a control. Then, the overnight culture of S. aureus ATCC 25923 cells was added to the medium at 1:1,000. The plate was incubated with shaking in SpectraMax iD3 (MOLECULAR DEVICES) at 30 ℃. OD600 was measured every 30 min for 36 hours. To analyze the lysis, 1mL of S. aureus ATCC 25923 culture (OD600 1.0) was treated with massatide A or vancomycin (10×MIC) for 24h. An untreated sample was used as a negative control. […]
(§2) Experiments were performed in triplicate. […]

S. aureus ATCC 25923 [8] = assay: Time-dependent killing assay; assay type: cell-based, Staphylococcus aureus; conditions: time-killing assay
Description: Time-dependent killing assay
An overnight culture of S. aureus ATCC 25923 cells was diluted at 1:10,000 in MHB medium and incubated at 37 ℃, 200 rpm for 2 hours to reach the early exponential.
Then, massatide A or vancomycin was added to the culture at the concentration of 10×MIC. Bacteria were still cultivated at 37 ℃, 200 rpm. Culture with no antibiotics was used as a negative control. 10 μL aliquots were removed at intervals, centrifuged, and resuspended in 1 ml PBS. Serially diluted (10-fold) suspensions were plated on MHB agar and incubated at 37 ℃ overnight for counting of colony-forming units.
as §2

S. aureus ATCC 25923 [9] = conditions: 25 days of serial passaging, control antibiotic
Description: was used as a negative control.
Experiments were performed in triplicate.
The experiment was performed in triplicate.

C=C1NC(=O)C(NC(=O)/C(=C/C)NC(=O)[C@H](CCCNC(=N)N)NC(=O)[C@@H](C)NC(=O)[C@@H](NC(=O)[C@H](C)NC(=O)[C@@H](NC(=O)[C@@H](C)NC(=O)[C@H](C)NC(=O)[C@@H]2CSC(C)C(N(C)C)C(=O)N/C(=C\C)C(=O)N[C@@H](Cc3ccc(O)cc3)C(=O)N[C@@H]([C@@H](C)CC)C(=O)N2)C(C)C)[C@@H](C)CC)CSC[C@@H](C(=O)N[C@H](C)C(=O)N[C@@H](C)C(=O)N[C@@H](C)C(=O)N[C@@H](C)C(=O)N[C@H](C)C(=O)N[C@@H](C)C(=O)N[C@H](C(=O)N[C@H](C)C(=O)NCC(=O)N[C@@H](C)C(=O)NC2C(=O)N[C@@H](Cc3ccc(O)cc3)C(=O)N[C@@H](CCC(=O)O)C(=O)N[C@@H](Cc3c[nH]c4ccccc34)C(=O)N[C@@H]([C@@H](C)O)C(=O)N/C=C\SC2C)[C@@H](C)CC)NC(=O)[C@H](CCCCN)NC(=O)[C@H](C(C)C)NC1=O (stereo partly shown) [Sistertide A1 (2), sistertide A1]
MIC (Bacillus subtilis 168; 168, 20 h): >64 µg/mL
MIC [1]: >64 µg/mL
MIC [2]: >64 µg/mL
MIC [3]: >64 µg/mL
MIC [4]: >64 µg/mL
inhibitory activity (zone of inhibition) [5]: did not display significant inhibitory activity
MIC (Escherichia coli DH5α): >64 µg/mL
MIC [6]: >64 µg/mL

CN[C@H](CC(C)C)C(=O)N[C@H]1C(=O)N[C@@H](CC(N)=O)C(=O)N[C@H]2C(=O)N[C@H]3C(=O)N[C@H](C(=O)N[C@H](C(=O)O)c4cc(O)cc(O)c4-c4cc3ccc4O)[C@H](O)c3ccc(c(Cl)c3)Oc3cc2cc(c3O[C@@H]2O[C@H](CO)[C@@H](O)[C@H](O)[C@H]2O[C@H]2C[C@](C)(N)[C@H](O)[C@H](C)O2)Oc2ccc(cc2Cl)[C@H]1O [Vancomycin, reference compound]
MIC (Bacillus subtilis 168; Bacillus subtilis, 168, 20 h): 0.125 µg/mL (≈ 0.0863 µM)
MIC ([1]; Enterococcus faecalis): 2 µg/mL (≈ 1.38 µM)
MIC ([2]; Enterococcus faecium): 1 µg/mL (≈ 0.69 µM)
MIC ([3]; Micrococcus luteus): 0.125 µg/mL (≈ 0.0863 µM)
MIC ([4]; Staphylococcus aureus): 1 µg/mL (≈ 0.69 µM)
lysis of the cell culture (S. aureus ATCC 25923 [7]): the same as vancomycin
log(CFU/mL) (S. aureus ATCC 25923 [8]; time 0 h, log of mean of 3 replicates): 6.907 log(CFU/mL)
CFU/mL (S. aureus ATCC 25923 [8]; time 0 h, mean of 3 replicates): 8080000 CFU/mL
CFU/mL (S. aureus ATCC 25923 [8]; time 0 h, replicate 1): 8440000 CFU/mL
log(CFU/mL) (S. aureus ATCC 25923 [8]; time 0 h, replicate 1): 6.926 log(CFU/mL)
CFU/mL (S. aureus ATCC 25923 [8]; time 0 h, replicate 2): 8020000 CFU/mL
log(CFU/mL) (S. aureus ATCC 25923 [8]; time 0 h, replicate 2): 6.904 log(CFU/mL)
CFU/mL (S. aureus ATCC 25923 [8]; time 0 h, replicate 3): 7780000 CFU/mL
log(CFU/mL) (S. aureus ATCC 25923 [8]; time 0 h, replicate 3): 6.891 log(CFU/mL)
log(CFU/mL) (S. aureus ATCC 25923 [8]; time 1 h, log of mean of 3 replicates): 6.695 log(CFU/mL)
CFU/mL (S. aureus ATCC 25923 [8]; time 1 h, mean of 3 replicates): 4950000 CFU/mL
CFU/mL (S. aureus ATCC 25923 [8]; time 1 h, replicate 1): 5360000 CFU/mL
log(CFU/mL) (S. aureus ATCC 25923 [8]; time 1 h, replicate 1): 6.729 log(CFU/mL)
CFU/mL (S. aureus ATCC 25923 [8]; time 1 h, replicate 2): 5200000 CFU/mL
log(CFU/mL) (S. aureus ATCC 25923 [8]; time 1 h, replicate 2): 6.716 log(CFU/mL)
CFU/mL (S. aureus ATCC 25923 [8]; time 1 h, replicate 3): 4290000 CFU/mL
log(CFU/mL) (S. aureus ATCC 25923 [8]; time 1 h, replicate 3): 6.632 log(CFU/mL)
log(CFU/mL) (S. aureus ATCC 25923 [8]; time 3 h, log of mean of 3 replicates): 6.685 log(CFU/mL)
CFU/mL (S. aureus ATCC 25923 [8]; time 3 h, mean of 3 replicates): 4836667 CFU/mL
CFU/mL (S. aureus ATCC 25923 [8]; time 3 h, replicate 1): 4940000 CFU/mL
log(CFU/mL) (S. aureus ATCC 25923 [8]; time 3 h, replicate 1): 6.694 log(CFU/mL)
CFU/mL (S. aureus ATCC 25923 [8]; time 3 h, replicate 2): 4850000 CFU/mL
log(CFU/mL) (S. aureus ATCC 25923 [8]; time 3 h, replicate 2): 6.686 log(CFU/mL)
CFU/mL (S. aureus ATCC 25923 [8]; time 3 h, replicate 3): 4720000 CFU/mL
log(CFU/mL) (S. aureus ATCC 25923 [8]; time 3 h, replicate 3): 6.674 log(CFU/mL)
log(CFU/mL) (S. aureus ATCC 25923 [8]; time 7 h, log of mean of 3 replicates): 5.899 log(CFU/mL)
CFU/mL (S. aureus ATCC 25923 [8]; time 7 h, mean of 3 replicates): 791667 CFU/mL
CFU/mL (S. aureus ATCC 25923 [8]; time 7 h, replicate 1): 695000 CFU/mL
log(CFU/mL) (S. aureus ATCC 25923 [8]; time 7 h, replicate 1): 5.842 log(CFU/mL)
CFU/mL (S. aureus ATCC 25923 [8]; time 7 h, replicate 2): 770000 CFU/mL
log(CFU/mL) (S. aureus ATCC 25923 [8]; time 7 h, replicate 2): 5.886 log(CFU/mL)
CFU/mL (S. aureus ATCC 25923 [8]; time 7 h, replicate 3): 910000 CFU/mL
log(CFU/mL) (S. aureus ATCC 25923 [8]; time 7 h, replicate 3): 5.959 log(CFU/mL)
log(CFU/mL) (S. aureus ATCC 25923 [8]; time 26 h, log of mean of 3 replicates): 3.724 log(CFU/mL)
CFU/mL (S. aureus ATCC 25923 [8]; time 26 h, mean of 3 replicates): 5300 CFU/mL
CFU/mL (S. aureus ATCC 25923 [8]; time 26 h, replicate 1): 5500 CFU/mL
log(CFU/mL) (S. aureus ATCC 25923 [8]; time 26 h, replicate 1): 3.74 log(CFU/mL)
CFU/mL (S. aureus ATCC 25923 [8]; time 26 h, replicate 2): 5400 CFU/mL
log(CFU/mL) (S. aureus ATCC 25923 [8]; time 26 h, replicate 2): 3.732 log(CFU/mL)
CFU/mL (S. aureus ATCC 25923 [8]; time 26 h, replicate 3): 5000 CFU/mL
log(CFU/mL) (S. aureus ATCC 25923 [8]; time 26 h, replicate 3): 3.699 log(CFU/mL)
shift of MIC during serial passaging (S. aureus ATCC 25923 [9]): absence of a shift
